Test results published in patent US20140088144A1, “INHIBITING MICROBIAL INFECTIONS” (THE UNIVERSITY OF KANSAS, priority 2012, published 2014).

Assays:
[1] = tested on: E. coli strains used for in vivo assays; test: E. coli growth curves; format: cell-based; settings: for impact on growth of the cells: minimal medium
Experimental: Strains SME3634 and SME3359 were grown overnight (˜16 hr) at 37° C. in MOPS-buffered minimal medium. Overnight grown cultures were diluted into the same medium plus rhamnose to an O.D600 of 0.1, and IPTG was added. 1 mL aliquots of the cultures were added to wells of a 24-well plate, with the addition of either 44 μM Compound 1 (dissolved in 100% DMSO) or an equal volume of 100% DMSO. Growth was monitored at 20 min intervals for approximately 8 hr. at 37° C. with continuous shaking in a PowerWave XS plate reader (BioTek Instruments, Inc., Winooski, Vt.). Error bars represent the standard error of the mean.
To test the impact of SE-1 on growth of the bacterial strains used for in vivo dose-response assays (SME4382 and SME3359), we compared growth rates in the presence and absence of SE-1, without addition of rhamnose. Briefly, the cells were grown at 37° C. with shaking in MOPS-buffered minimal medium with glycerol and plus 6.5 mM IPTG, in 24-well plates, with or without: SE-1 (44 uM SE-1, 0.3% DMSO), or DMSO (0.3%) in a PowerWave XS plate reader equipped with KC^4 data analysis software (BioTek Instruments).

gapA = test: Shigella gene expression qRT-PCR, internal control gapA; format: cell-based, S. flexneri; settings: for Average ΔΔCt / Ct / RQ (2^−ΔΔCt) / ΔΔCt^2 (normalized to rrsA): gapA, example data
Experimental: (§1) Real-time quantitative reverse transcription PCR (qRT-PCR) was performed to test the effects of SE-1 on the expression of the VirF regulated genes virB, icsA, icsB and ipaB. The gapA and rrsA transcripts were used as internal controls. These are constitutively expressed Shigella genes commonly used to normalize mRNA levels. S. flexneri strain SME4331, which carries a null mutation in ipgD (ipgD), was grown at 30° C. overnight in TSB with ampicillin, diluted into the same medium to an OD600 of ˜0.1, and 1 ml aliquots further grown at 30° C. (DMSO only) or at 37° C. (SE-1 at 20 or 40 μM, or DMSO only, all 0.3% DMSO). Cells were grown to an OD600 of 1.0 (˜2.5 h) and RNA was isolated using an RNeasy MiniElute Cleanup Kit (Qiagen, Germantown, Md.), with DNA contamination eliminated using a Turbo DNase Kit (Ambion, Austin, Tex.). Complementary DNA (cDNA) was synthesized by random priming using a cDNA Reverse Transcription Kit (Applied Biosystems, Foster City, Calif.). Primers were tested for PCR specificity using genomic DNA template to ensure a single amplicon of the expected size for each primer pair, and validated using 5-fold dilutions of cDNA (2000 to 0.0256 ng) to ensure a linear plot of cycle threshold (Ct) versus cDNA concentration. Validated primer sets were used to test mRNA profiles in reactions that contained 10 ng of cDNA, 10 μl of SYBR green master mix (Applied Biosystems), specific primers (0.5 μM each) and water to a final volume of 20 μl, using a Step One Plus Real-Time PCR System (Applied Biosystems). The data was analyzed using the 2^−ΔΔCt method, and also by Applied Biosystems real-time analysis software. […] In brief, ΔΔCt values [ΔΔCt=(Ct,Target−Ct,Internal Control)SE-1−(Ct,Target−Ct,Internal Control)no SE-1] were separately obtained for each sample relative to two internal controls, gapA and rrsA. The ΔΔCt values relative to the two internal controls for each sample were averaged and then used to calculate the relative expression levels (2^−ΔΔCt). As a control, we also normalized each internal control to the other internal control. Control reactions used templates generated without reverse transcriptase to ensure low genomic DNA contamination. To ensure that products were not likely to be due to primer dimer artifacts, additional control samples were performed in which reaction mixtures contained primers alone (no template).

rrsA = test: Shigella gene expression qRT-PCR, internal control rrsA; format: cell-based, S. flexneri; settings: for Average ΔΔCt / Ct / RQ (2^−ΔΔCt) / ΔΔCt^1 (normalized to gapA): rrsA, example data
Experimental: as §1

MBP-Rns = target: T1, MBP-Rns (Escherichia coli, UniProt P16114); test: EMSA in vitro DNA binding by MBP-Rns; format: biochemical, Enterotoxigenic E. coli
T1 construct: made in house
T1 sequence (P16114 whole entry): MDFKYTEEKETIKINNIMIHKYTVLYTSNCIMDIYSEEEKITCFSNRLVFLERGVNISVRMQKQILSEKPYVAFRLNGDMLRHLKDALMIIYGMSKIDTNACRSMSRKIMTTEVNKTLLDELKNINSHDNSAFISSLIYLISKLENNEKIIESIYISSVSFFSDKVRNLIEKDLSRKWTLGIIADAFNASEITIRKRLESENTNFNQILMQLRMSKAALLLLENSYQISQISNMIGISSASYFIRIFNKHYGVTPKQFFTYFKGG
Source text: FIGS. 9A-9B show inhibition of MBP-Rns and MBP-VirF by Compound 1. Quantification of EMSA of MBP-Rns (FIG. 9A) or example EMSA of MBP-VirF (FIG. 9B) DNA binding with the indicated inhibitor concentrations [micromolar]. F is Free DNA.
The compounds of the invention can be used for inhibition of virulence in vivo and in vitro activation by Rns and VirF.

With `CCCCN1C=C(c2ccc3ccccc3n2)C(C[N+](=O)[O-])c2ccccc21` (stereo not shown) [Compound 1, 1-butyl-4-(nitromethyl)-3-quinolin-2-yl-4H-quinoline] the “effect on growth of either strain” value ([1]; 44 uM, SME4382 and SME3359, 8 h at 37° C.) was “no detectable effect”, the “impact on growth of the cells” value ([1]; 44 μM, strains with RhaS-activated and LacI-repressed fusions (SME3634, SME3359)) was “no impact” and the “impact on growth of the cells” value ([1]; strains with VirF/Rns-activated and LacI-repressed reporter fusions) was “no impact”. For the same compound, the “expression of control gene gapA” value (gapA; 40 μM SE-1, normalized to rrsA) was “no decrease”, the “Average ΔΔCt” value (gapA; SE-1 20 μM) was 1 and the Ct (gapA; SE-1 20 μM) was 27.33. For the same compound, the “RQ (2^−ΔΔCt)” value (gapA; SE-1 20 μM) was 0.5, the “ΔΔCt^2 (normalized to rrsA)” value (gapA; SE-1 20 μM) was 1 and the “Average ΔΔCt” value (gapA; SE-1 40 μM) was −0.69. For the same compound, the Ct (gapA; SE-1 40 μM) was 26.76, the “RQ (2^−ΔΔCt)” value (gapA; SE-1 40 μM) was 0.62 and the “ΔΔCt^2 (normalized to rrsA)” value (gapA; SE-1 40 μM) was −0.69. The “expression of control gene rrsA” value (rrsA; 40 μM SE-1, normalized to gapA) was “no decrease”, the “Average ΔΔCt” value (rrsA; SE-1 20 μM) was −1.0 and the Ct (rrsA; SE-1 20 μM) was 18.55. The “RQ (2^−ΔΔCt)” value (rrsA; SE-1 20 μM) was 2, the “ΔΔCt^1 (normalized to gapA)” value (rrsA; SE-1 20 μM) was −1.0 and the “Average ΔΔCt” value (rrsA; SE-1 40 μM) was 0.69. For the same compound, the Ct (rrsA; SE-1 40 μM) was 18.29, the “RQ (2^−ΔΔCt)” value (rrsA; SE-1 40 μM) was 1.62 and the “ΔΔCt^1 (normalized to gapA)” value (rrsA; SE-1 40 μM) was 0.69. For the same compound, the “inhibition of in vitro DNA binding by purified Rns” value (MBP-Rns) was “similarly inhibits”.
